Assay results reported in patent publication US20160280736A1, “CYCLIC PEPTIDE COMPOUND, AND PREPARATION METHOD, PHARMACEUTICAL COMPOSITION AND USE THEREOF” (HANGZHOU GUANYU BIO-MEDICAL CO., LTD., priority 2013, published 2016).
Values belong to the compound of their own block, whether it stands above or below them.

Tests used:
[1] = tested on: Huh-7 (human hepatoma cells); assay: MTT cancer cell growth inhibition; assay type: cell-based; conditions: Huh-7, 72 h, Huh-7 cells, 72 hours incubation
Excerpt: (§1) MTT assay principle is yellow MTT can penetrate membrane into the cell, succinic dehydrogenase of the mitochondria in living cells can make exogenous MTT reduction of insoluble in water of blue-violet acicular formazan for crystallization and deposition in the cell, crystallization can be dissolved dimethyl sulfoxide (DMSO) solution, detected its absorbance at 490 nm/570 nm wavelength by enzyme-linked immunosorbent assay, which can reflect the number of cells.
(§2) Using DMEM+10% FBS culture medium or using 1640+10% FBS culture, respectively.
(§3) Experimental group: 190 μl cell suspension+10 μl different concentrations of drugs (the final concentration is 10^−5˜10^−10 M)
(§4) a) Cells were seeded in 96-well plates with the inoculation of 1500/well, 190 μl/hole, 37° C., 5% of CO2 incubator overnight;
(§5) b) The next day each well was added 10 μl of different drugs. The final concentration of drug was 10^−5˜10^−10 M, three parallel holes; 37° C., 5% CO2 culture incubator for 72 hours incubation;
(§6) c) Per well was added 20 μl 5 mg/ml of MTT, 37° C., 5% CO2 culture incubator for 4 hours incubation;
(§7) d) The supernatant was discarded. Each well was added 100 μl of DMSO and oscillation;
(§8) e) 570 nm readings. Calculate cell viability. GI50 calculation based on the results.

[2] = tested on: K562 (human leukemia cells); assay: MTT cancer cell growth inhibition; assay type: cell-based; conditions: K562, 72 h, 72 hours incubation
Excerpt: as §1, §2, §3, §4, §5, §6, §7, §8

[3] = tested on: KBM-5 (human chronic myelogenous leukemia); assay: MTT cancer cell growth inhibition; assay type: cell-based; conditions: KBM5, 72 h, KBM-5 cells, 72 hours incubation
Excerpt: as §1, §2, §3, §4, §5, §6, §7, §8

[4] = tested on: KBM5-T315I (human chronic myelogenous leukemia); assay: MTT cancer cell growth inhibition; assay type: cell-based; conditions: 72 h, KBM5-T315I cells, 72 hours incubation, read-out: GI50 KBM5-T
Excerpt: as §1, §2, §3, §4, §5, §6, §7, §8

[5] = tested on: MDA-MB-231 (breast cancer cells); assay: MTT cancer cell growth inhibition; assay type: cell-based; conditions: Homo sapiens, MDA-MB-231, 72 h, MDA-MB-231 cells, 72 hours incubation
Excerpt: as §1, §2, §3, §4, §5, §6, §7, §8

[6] = tested on: N-87 (human gastric cancer cells); assay: MTT cancer cell growth inhibition; assay type: cell-based; conditions: 72 h, N-87 cells, 72 hours incubation
Excerpt: as §1, §2, §3, §4, §5, §6, §7, §8

[7] = tested on: SGC-7901 (human gastric cancer cells); assay: MTT cancer cell growth inhibition; assay type: cell-based; conditions: SGC-7901, 72 h, SGC-7901 cells, 72 hours incubation, read-out: GI50 SGC-79
Excerpt: as §1, §2, §3, §4, §5, §6, §7, §8

[8] = tested on: Bel-7402 (human hepatoma cells); assay: MTT cancer cell growth inhibition; assay type: cell-based; conditions: Bel-7402, 72 h, Bel-7402 cells, 72 hours incubation, read-out: GI50 Bel-7
Excerpt: as §1, §2, §3, §4, §5, §6, §7, §8

[9] = tested on: HCC827 (human non-small cell lung cancer cells); assay: MTT cancer cell growth inhibition; assay type: cell-based; conditions: HCC827, 72 h, 72 hours incubation, read-out: GI50 HCC8
Excerpt: as §1, §2, §3, §4, §5, §6, §7, §8

[10] = molecular target: HDAC1 (Homo sapiens, UniProt Q13547); assay: HDAC biochemical activity measurement (fluorescent substrate deacetylation); conditions: HDAC1 enzyme, 37°, 30 minutes
Procedure: (§9) Measurement principle: The chemical activity of the compound is determined according to the degree of deacetylation inhibition of the HDAC enzyme. This experiment measured the degree of deacetylation related to tumor proliferation and metastasis of HDAC1, HDAC2, HDAC3, HDAC8, HDAC11 five subtypes HDAC enzymes. After the substrate containing an acetylated lysine side chain and HDAC enzyme are labeled with a fluorescent label, the fluorescent substrate is de acetyl. The fluorescent labeled substrate is cleaved by the enzyme, and the fluorescent substance is released, which generates 460 nm emission light under the excitation of 360 nm light.
(§10) Specific steps: HDAC substrate was diluted with reaction buffer to 200M (reaction concentration of 20M), the HDAC enzyme was diluted to the appropriate concentration, then added different concentrations of the test compounds and acted at 37 ? 30 minutes, and then added the same volume of 2-times concentration substrate developing solution (developer), incubated at room temperature for 15 minutes. Finally, the last reading measured with a microplate plate reader, excitation light was 360 nm, the emitted light was 460 nm, data processing software was Prime 4, and the results are shown in Table 1.

[11] = molecular target: HDAC2 (Homo sapiens, UniProt Q92769); assay: as above; conditions: HDAC2 enzyme, 37°, 30 minutes
Procedure: as §9, §10

[12] = molecular target: T1, HDAC8 (Homo sapiens, UniProt Q9BY41); assay: as above; conditions: HDAC8 enzyme, 37°, 30 minutes
T1 sequence (Q9BY41 1-377): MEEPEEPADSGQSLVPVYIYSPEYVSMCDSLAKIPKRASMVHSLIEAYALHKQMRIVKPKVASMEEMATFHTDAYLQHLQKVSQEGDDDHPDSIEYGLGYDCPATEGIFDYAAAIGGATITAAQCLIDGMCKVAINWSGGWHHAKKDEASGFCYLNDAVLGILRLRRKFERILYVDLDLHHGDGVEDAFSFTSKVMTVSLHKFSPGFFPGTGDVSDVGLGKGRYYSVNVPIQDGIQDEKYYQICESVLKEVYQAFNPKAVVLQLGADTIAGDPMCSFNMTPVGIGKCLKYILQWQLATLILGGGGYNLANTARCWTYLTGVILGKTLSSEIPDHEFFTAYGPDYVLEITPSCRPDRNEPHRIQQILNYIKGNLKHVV
Procedure: as §9, §10

[13] = tested on: A549 (human lung cancer cells); assay: MTT cancer cell growth inhibition; assay type: cell-based; conditions: Homo sapiens, A549, 72 h, 72 hours incubation, A549 cells, read-out: GI50 A549
Excerpt: as §1, §2, §3, §4, §5, §6, §7, §8

[14] = tested on: BGC-823 (human gastric cancer cells); assay: MTT cancer cell growth inhibition; assay type: cell-based; conditions: Homo sapiens, BGC-823, 72 h, 72 hours incubation, BGC-823 cells, read-out: GI50 BGC8
Excerpt: as §1, §2, §3, §4, §5, §6, §7, §8

[15] = tested on: DU145 (human prostate cancer cells); assay: MTT cancer cell growth inhibition; assay type: cell-based; conditions: Homo sapiens, DU-145, 72 h, 72 hours incubation, DU145 cells, read-out: GI50 Du14
Excerpt: as §1, §2, §3, §4, §5, §6, §7, §8

[16] = tested on: HT1080 (human fibrosarcoma cells); assay: MTT cancer cell growth inhibition; assay type: cell-based; conditions: Homo sapiens, HT-1080, 72 h, 72 hours incubation, HT1080 cells, read-out: GI50 HT10
Excerpt: as §1, §2, §3, §4, §5, §6, §7, §8

[17] = tested on: Hela (human cervical cancer cells); assay: MTT cancer cell growth inhibition; assay type: cell-based; conditions: Homo sapiens, HeLa, 72 h, 72 hours incubation, Hela cells, read-out: GI50 Hela
Excerpt: as §1, §2, §3, §4, §5, §6, §7, §8

[18] = tested on: MCF-7 (human breast cancer cells); assay: MTT cancer cell growth inhibition; assay type: cell-based; conditions: Homo sapiens, MCF7, 72 h, 72 hours incubation, MCF-7 cells
Excerpt: as §1, §2, §3, §4, §5, §6, §7, §8

[19] = tested on: MOLT-4 (human acute lymphoblastic leukemia cells); assay: MTT cancer cell growth inhibition; assay type: cell-based; conditions: Homo sapiens, MOLT-4, 72 h, 72 hours incubation, MOLT-4 cells, read-out: GI50 Molt-
Excerpt: as §1, §2, §3, §4, §5, §6, §7, §8

[20] = tested on: PANC-1 (Pac-1, human pancreatic cancer cells); assay: MTT cancer cell growth inhibition; assay type: cell-based; conditions: Homo sapiens, PANC-1, 72 h, 72 hours incubation, PANC-1 cells, read-out: GI50 PAN
Excerpt: as §1, §2, §3, §4, §5, §6, §7, §8

[21] = tested on: U937 (human leukemia cells); assay: MTT cancer cell growth inhibition; assay type: cell-based; conditions: Homo sapiens, U-937, 72 h, 72 hours incubation
Excerpt: as §1, §2, §3, §4, §5, §6, §7, §8

[22] = tested on: lncap (prostate cancer cells); assay: MTT cancer cell growth inhibition; assay type: cell-based; conditions: Homo sapiens, LNCaP, 72 h, 72 hours incubation, lncap cells, read-out: GI50 lncap
Excerpt: as §1, §2, §3, §4, §5, §6, §7, §8

[23] = molecular target: HDAC3 (Homo sapiens, UniProt O15379); assay: HDAC biochemical activity measurement (fluorescent substrate deacetylation); conditions: IC50 (μM) HDAC3, HDAC3 enzyme, 37°, 30 minutes
Procedure: as §9, §10

[24] = molecular target: T2, HDAC11 (Homo sapiens, UniProt Q96DB2); assay: as above; conditions: IC50 (μM) HDAC11, HDAC11 enzyme, 37°, 30 minutes
T2 sequence (Q96DB2 1-347): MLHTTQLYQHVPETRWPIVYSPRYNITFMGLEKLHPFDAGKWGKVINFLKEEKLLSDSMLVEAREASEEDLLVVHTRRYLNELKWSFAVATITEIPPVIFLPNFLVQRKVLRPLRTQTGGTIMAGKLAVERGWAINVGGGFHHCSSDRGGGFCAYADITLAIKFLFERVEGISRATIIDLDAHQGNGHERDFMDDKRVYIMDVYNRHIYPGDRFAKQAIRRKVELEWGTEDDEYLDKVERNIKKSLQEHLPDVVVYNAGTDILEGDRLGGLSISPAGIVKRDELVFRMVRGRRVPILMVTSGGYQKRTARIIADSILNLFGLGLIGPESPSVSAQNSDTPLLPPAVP
Procedure: as §9, §10

Sequence of HDAC2 (Q92769 whole entry, species assumed): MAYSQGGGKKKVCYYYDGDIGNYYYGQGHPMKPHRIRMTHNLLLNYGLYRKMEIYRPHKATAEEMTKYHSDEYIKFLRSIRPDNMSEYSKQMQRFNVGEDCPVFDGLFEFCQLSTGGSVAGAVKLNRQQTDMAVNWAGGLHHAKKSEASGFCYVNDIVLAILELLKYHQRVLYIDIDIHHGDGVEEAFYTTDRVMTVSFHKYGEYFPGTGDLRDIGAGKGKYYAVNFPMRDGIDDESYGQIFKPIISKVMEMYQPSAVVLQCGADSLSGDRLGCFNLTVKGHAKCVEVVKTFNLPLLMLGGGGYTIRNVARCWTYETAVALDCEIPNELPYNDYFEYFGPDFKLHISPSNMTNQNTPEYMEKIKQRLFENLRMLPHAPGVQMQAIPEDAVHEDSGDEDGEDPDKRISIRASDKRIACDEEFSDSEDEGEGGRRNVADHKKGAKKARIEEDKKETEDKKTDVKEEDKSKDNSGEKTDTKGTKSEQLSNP
Sequence of HDAC3 (O15379 whole entry, species assumed): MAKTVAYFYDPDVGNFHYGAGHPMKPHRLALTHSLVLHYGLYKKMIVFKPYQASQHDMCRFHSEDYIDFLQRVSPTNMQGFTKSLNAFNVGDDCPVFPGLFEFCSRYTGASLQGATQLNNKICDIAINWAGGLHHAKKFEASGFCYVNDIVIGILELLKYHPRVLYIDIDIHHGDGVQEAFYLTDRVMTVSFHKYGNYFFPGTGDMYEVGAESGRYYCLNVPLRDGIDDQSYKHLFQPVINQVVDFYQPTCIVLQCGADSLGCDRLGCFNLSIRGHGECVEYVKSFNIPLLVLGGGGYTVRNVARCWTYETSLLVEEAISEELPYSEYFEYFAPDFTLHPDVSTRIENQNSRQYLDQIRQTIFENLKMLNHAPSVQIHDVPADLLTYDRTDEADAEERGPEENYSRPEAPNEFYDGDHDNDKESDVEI
Sequence of HDAC3 (Q9Y618 395-489 partner limits assumed, species assumed): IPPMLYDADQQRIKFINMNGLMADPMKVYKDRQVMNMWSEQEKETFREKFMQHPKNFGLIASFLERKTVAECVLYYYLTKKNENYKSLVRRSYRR
Sequence of HDAC1 (Q13547 whole entry, species assumed): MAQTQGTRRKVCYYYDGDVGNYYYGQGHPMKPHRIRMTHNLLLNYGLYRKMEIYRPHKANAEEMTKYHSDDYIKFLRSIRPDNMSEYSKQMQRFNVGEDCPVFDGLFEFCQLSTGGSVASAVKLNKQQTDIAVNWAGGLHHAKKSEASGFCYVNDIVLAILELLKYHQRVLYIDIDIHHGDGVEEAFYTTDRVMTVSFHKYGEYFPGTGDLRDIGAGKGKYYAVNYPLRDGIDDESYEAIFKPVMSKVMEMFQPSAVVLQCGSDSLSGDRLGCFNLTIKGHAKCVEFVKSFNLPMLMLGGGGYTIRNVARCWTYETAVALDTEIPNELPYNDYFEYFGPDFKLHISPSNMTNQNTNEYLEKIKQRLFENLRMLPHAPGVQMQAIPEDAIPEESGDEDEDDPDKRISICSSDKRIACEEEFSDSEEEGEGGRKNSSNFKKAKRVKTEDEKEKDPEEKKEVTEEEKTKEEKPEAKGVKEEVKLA

- GI50 [1]: 25 nM
- GI50 [2]: 42 nM
- GI50 [3]: 79 nM
- GI50 [4]: 63 nM
- GI50 [5]: 25 nM
- GI50 [6]: 69 nM
- GI50 [7]: 39 nM
Structure (SMILES): C/C=C1\NC(=O)c2ccc(F)c(n2)CNC(=O)C[C@@H](/C=C/CCSC(C)=O)OC(=O)[C@H](C(C)C)NC1=O (single isomer, unassigned) [Example 50]

- GI50 [8]: 72 nM
- GI50 [9]: 72 nM
- GI50 [1]: 26 nM
- GI50 [2]: 17 nM
- GI50 [3]: 87 nM
- GI50 [4]: 55 nM
- GI50 [5]: 26 nM
- GI50 [6]: 73 nM
- GI50 [7]: 67 nM
Structure (SMILES): C/C=C1\NC(=O)c2cc(F)cc(n2)CNC(=O)C[C@@H](/C=C/CCSC(C)=O)OC(=O)[C@H](C(C)C)NC1=O [Compound 49]

- IC50 [10]: 0.061 µM
- IC50 [11]: 0.033 µM
- IC50 [12]: 0.062 µM
- GI50 [13]: 83 nM
- GI50 [14]: 29 nM
- GI50 [15]: 23 nM
- GI50 [16]: 57 nM
- GI50 [17]: 12 nM
- GI50 [18]: 73 nM
- GI50 [19]: 32 nM
- GI50 [20]: 11 nM
- GI50 [21]: 65 nM
- GI50 [22]: 79 nM
- IC50 [23]: 0.063 µM
- IC50 [24]: 0.086 µM
Structure (SMILES): C/C=C1\NC(=O)c2ccc(SC)c(n2)CNC(=O)C[C@@H](/C=C/CCSC(=O)CCC)OC(=O)[C@H](C(C)C)NC1=O [Compound 161]
